Literature values, collected in patent US11802256B2, “Method for extracting palmitoleic acid from macadamia integrifolia and use thereof” (SOUTHWEST FORESTRY UNIVERSITY, priority 2021, dated 2023).

Tests used:
tyrosinase = biological target: T1, tyrosinase (Mus musculus, UniProt P11344); details: mouse melanocytes, at a protein level
T1 construct: host or cells: mouse melanocytes / mouse melanoma cells (endogenous)
T1 sequence (P11344 19-533): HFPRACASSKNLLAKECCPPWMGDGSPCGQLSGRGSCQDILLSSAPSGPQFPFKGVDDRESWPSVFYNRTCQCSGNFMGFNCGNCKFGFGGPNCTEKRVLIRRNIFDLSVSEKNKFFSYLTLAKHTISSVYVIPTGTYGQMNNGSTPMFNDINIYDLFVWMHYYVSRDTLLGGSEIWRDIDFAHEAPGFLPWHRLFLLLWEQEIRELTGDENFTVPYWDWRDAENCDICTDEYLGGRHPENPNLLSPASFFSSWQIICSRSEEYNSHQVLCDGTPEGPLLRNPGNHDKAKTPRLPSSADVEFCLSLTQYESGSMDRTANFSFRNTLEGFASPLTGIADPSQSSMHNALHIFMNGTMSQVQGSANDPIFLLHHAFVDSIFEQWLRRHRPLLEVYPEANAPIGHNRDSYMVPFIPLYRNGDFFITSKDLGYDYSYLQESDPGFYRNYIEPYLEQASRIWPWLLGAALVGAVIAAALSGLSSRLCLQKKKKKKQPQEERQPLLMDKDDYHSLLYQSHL

CCCCCC/C=C\CCCCCCCC(=O)O [palmitoleic acid]
inhibitory effect on melanin production (mouse melanoma cells): strong inhibitory effect | tyrosinase activity (tyrosinase): inhibits tyrosinase activity
